Source: ChEMBL document CHEMBL4811256, “Synthesis and evaluation of multi-target-directed ligands with BACE-1 inhibitory and Nrf2 agonist activities as potential agents against Alzheimer's disease” (Eur J Med Chem, 2021)
Active and inactive are the calls of the source. No cut-off for these calls is given here.

Tests used:
PC-12 [1] = assay: Neuroprotective activity against H2O2-induced cell damage in rat PC-12 cells assessed as decrease in cell death at 10 uM pretreated for 12 hrs followed by H2O2 challenge by MTT assay; format: functional, cell-based
HEK293 = assay: Inhibition of amyloid beta(1 to 40) secretion in human HEK293T cells transfected with human APP harboring Swedish double mutant K595N/M596L at 1 uM measured after 24 hrs by ELISA; format: functional, cell-based
PC-12 [2] = assay: Protection against 6-OHDA-induced ROS accumulation in rat PC-12 cells assessed as intracellular ROS level by measuring mean fluorescence intensity pretreated for 12 hrs followed by 6-OHDA challenge by DCFH-DA staining based flow cytometry; format: functional, cell-based; conditions: dose 2.5-10 µM
[3] = Glutathione peroxidase-like activity in pH 7.5 potassium phosphate buffer assessed as catalytic reduction of H2O2 by measuring initial velocity at 25 degreeC using GSH in presence of NADPH by UV absorbance analysis (reference value: 30.41+/- 2.06 microM/min); format: functional
PC-12 [4] = assay: Protection against H2O2-induced ROS accumulation in rat PC-12 cells assessed as intracellular ROS level by measuring mean fluorescence intensity pretreated for 12 hrs followed by H2O2 challenge by DCFH-DA staining based flow cytometry; format: functional, cell-based; conditions: dose 2.5-10 µM
PC-12 [5] = assay: Cytoprotective activity against H2O2- induced cell death in rat PC-12 cells assessed as increase in viable cells pretreated for 12 hrs followed by H2O2 challenge by MTT assay; format: functional, cell-based; conditions: dose 2.5-10 µM
in vitro = conditions: PAMPA
PC-12 [6] = assay: Cytotoxicity against rat PC-12 cells at 25 uM incubated for 24 hrs by MTT assay; format: cell-based; conditions: pc-12, 24 h
Beta-secretase 1 = Beta-secretase 1 (Homo sapiens, UniProt P56817); assay: Inhibition of BACE-1 (unknown origin) using Mca-Ser-Glu-Val-Asn-Leu-Asp-Ala-Glu-Phe-Lys-Dnp-OH as substrate preincubated for 30 mins followed by substrate addition and measured after 1 hr by FRET assay
Sequence of Beta-secretase 1 (P56817 whole entry): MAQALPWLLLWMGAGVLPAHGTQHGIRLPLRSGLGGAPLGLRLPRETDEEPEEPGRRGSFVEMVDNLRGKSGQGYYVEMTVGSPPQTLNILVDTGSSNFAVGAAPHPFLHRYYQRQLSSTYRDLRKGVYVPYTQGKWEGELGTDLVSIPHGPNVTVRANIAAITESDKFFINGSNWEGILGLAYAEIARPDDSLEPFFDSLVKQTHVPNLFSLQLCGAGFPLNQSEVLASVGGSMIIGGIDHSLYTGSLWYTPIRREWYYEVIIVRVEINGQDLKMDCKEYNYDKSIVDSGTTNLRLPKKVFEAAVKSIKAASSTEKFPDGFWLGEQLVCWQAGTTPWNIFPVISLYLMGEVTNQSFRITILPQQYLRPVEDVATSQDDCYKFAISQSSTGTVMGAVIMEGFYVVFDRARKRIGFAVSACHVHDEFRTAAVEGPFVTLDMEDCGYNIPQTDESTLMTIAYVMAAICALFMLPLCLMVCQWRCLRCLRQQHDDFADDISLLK

## O=c1c2ccccc2[se]n1-c1ccccc1
PC-12 [1]
  Activity: Active
HEK293
  inhibition: inactive
PC-12 [2]
  Activity: Dose-Dependent Effect
[3]
  V0: 153 µM/min
PC-12 [4]
  Activity: Dose-Dependent Effect
PC-12 [5]
  Activity: Dose-Dependent Effect

## CN1C(N)=N[C@](C)(c2cc(-n3[se]c4c(C(F)(F)F)cccc4c3=O)ccc2F)CS1(=O)=O
[3]
  V0: 180 µM/min

## CN1C(N)=N[C@](C)(c2cc(-n3[se]c4c(F)cccc4c3=O)ccc2F)CS1(=O)=O
[3]
  V0: 242 µM/min

## Clc1cccc(Cl)c1N=C1NCCN1 [CLONIDINE]
In vitro
  Papp at 16 h: 7.36 ×10⁻⁶ cm/s

## CN1C(N)=N[C@](C)(c2cc(-n3[se]c4cc(F)c(F)cc4c3=O)ccc2F)CS1(=O)=O
PC-12 [1]
  Activity: Active
[3]
  V0: 163 µM/min
PC-12 [6]
  Activity: Non-Toxic
Beta-secretase 1
  IC50: 1.12 µM

## CN1C(N)=N[C@](C)(c2cc(-n3[se]c4ccccc4c3=O)ccc2F)CS1(=O)=O
PC-12 [1]
  Activity: Active
[3]
  V0: 156 µM/min
PC-12 [6]
  Activity: Non-Toxic
Beta-secretase 1
  IC50: 1.92 µM

## CN1C(N)=N[C@](C)(c2cc(NC(=O)c3ccc(F)cn3)ccc2F)CS1(=O)=O
PC-12 [1]
  Activity: Active
PC-12 [2]
  Activity: inactive
[3]
  V0: 29.4 µM/min
PC-12 [4]
  Activity: inactive

## CN1C(C(=O)Nc2ccccn2)=C(O)c2ccccc2S1(=O)=O [PIROXICAM]
In vitro
  Papp at 16 h: 3.07 ×10⁻⁶ cm/s

## CCn1cc(C(=O)O)c(=O)c2cc(F)c(N3CCNC(C)C3)c(F)c21 (configuration not stated) [LOMEFLOXACIN]
In vitro
  Papp at 16 h: 2.59 ×10⁻⁶ cm/s

## COc1ccc2[se]n(-c3ccc(F)c([C@]4(C)CS(=O)(=O)N(C)C(N)=N4)c3)c(=O)c2c1
PC-12 [1]
  Activity: Active
[3]
  V0: 161 µM/min
PC-12 [6]
  Activity: Non-Toxic
Beta-secretase 1
  IC50: 1.49 µM

## COc1ccc2c(=O)n(-c3ccc(F)c([C@]4(C)CS(=O)(=O)N(C)C(N)=N4)c3)[se]c2c1
[3]
  V0: 114 µM/min
Beta-secretase 1
  IC50: 1.55 µM

## Cc1cccc2c(=O)n(-c3ccc(F)c([C@]4(C)CS(=O)(=O)N(C)C(N)=N4)c3)[se]c12
[3]
  V0: 217 µM/min

## CN1C(N)=N[C@](C)(c2cc(-n3[se]c4ccc(C(F)(F)F)cc4c3=O)ccc2F)CS1(=O)=O
PC-12 [1]
  Activity: Active
[3]
  V0: 185 µM/min
PC-12 [6]
  Activity: Non-Toxic
Beta-secretase 1
  IC50: 1.6 µM

## Cc1ccc2[se]n(-c3ccc(F)c([C@]4(C)CS(=O)(=O)N(C)C(N)=N4)c3)c(=O)c2c1
[3]
  V0: 146 µM/min

## CN1C(N)=N[C@](C)(c2cc(-n3[se]c4ccc(F)cc4c3=O)ccc2F)CS1(=O)=O
PC-12 [1]
  Activity: Active
[3]
  V0: 197 µM/min
PC-12 [6]
  Activity: Non-Toxic
Beta-secretase 1
  IC50: 1.95 µM

## CN1C(N)=N[C@](C)(c2cc(-n3[se]c4cc(C(F)(F)F)ccc4c3=O)ccc2F)CS1(=O)=O
[3]
  V0: 145 µM/min

## Cc1ccc2c(=O)n(-c3ccc(F)c([C@]4(C)CS(=O)(=O)N(C)C(N)=N4)c3)[se]c2c1
[3]
  V0: 130 µM/min

## C[C@]12CC[C@@H]3c4ccc(O)cc4CC[C@H]3[C@@H]1CC[C@@H]2O [ESTRADIOL]
In vitro
  Papp at 16 h: 12.2 ×10⁻⁶ cm/s
